What all share (assay type): biochemical
In assay [1] the target is T1, recombinant human MMP-9 mixture (± 70% monomers and ± 30% trimers) (Homo sapiens, UniProt P14780).
T1 construct: made in house; host or cells: Sf9 insect cells
As to the kind of experiment: Gelatin degradation assay, recombinant MMP-9 mixture. As to conditions: recombinant human MMP-9 (Sf9) mix, best-fit value. How it is done:
(§1) Compounds 5 and 7 were synthesized as previously reported. Full-length human proMMP-9 was produced by recombinant expression in Sf9 insect cells and purified by gelatin-Sepharose chromatography as previously described. Stable full-length proMMP-9 monomers and trimers were separated by glycerol gradient ultracentrifugation as previously described. ProMMP-9 mixture and the separated monomers and trimers were activated by incubation with the catalytic domain of MMP-3 (cat. No. 444217, Merck Millipore, Darmstadt, Germany) as previously described. Activation of proMMP-9 was confirmed by a band shift of ±10 kDa, corresponding to the removal of the auto-inhibitory propeptide domain and by detection of gelatinolytic activity with a previously described gelatin degradation assay. MMP-9 monomers and trimers purified from human neutrophils were purchased (Cat. No. 444,231 and 444232, Sigma-Aldrich, St. Louis, MO, USA). Examples of sample purities and activations can be found in Supplementary Figure S1. Recombinant human proMMP-2 (CHO cell-derived), proMMP-3 (NS0 cell-derived), proMMP-7 (NS0 cell-derived) and proMMP-8 (NS0 cell-derived) were purchased from R & D systems (Minneapolis, MN, USA), dissolved in assay buffer (150 mM NaCl, 5 mM CaCl2, 0.01% Tween-20, 50 mM Tris, pH 7.4) to a concentration of 100 µg/mL and activated by incubation with 1 mM p-aminophenylmercuric acetate for, respectively, 1h, 6h, 2h and 1h. Activation of MMPs was confirmed by a band shift of approximately 10 kDa, corresponding to the removal of the propeptide domain. MMP-14/MT1-MMP (NS0 cell-derived) was also purchased from R & D systems (Minneapolis, MN, USA) and activated by incubation with recombinant human furin (cat. No. 1503-SE-010, R & D systems, Minneapolis, MO, USA) in activation buffer (50 mM Tris, 1 mM CaCl2, 0.5% Brij-35, pH 9) for 1.5 h and activity was tested in assay buffer (50 mM Tris, 3 mM CaCl2, 1 µM ZnCl2, pH 8.5). Active human neutrophil elastase (NE) was purchased from Abcam (Cambridge, UK) and for activity assays of NE the assay buffer was replaced by 200 mM Tris, pH 8.8. ADAM17/TACE (Sf 21 (baculovirus)-derived, R & D systems, Minneapolis, MO, USA) was diluted and evaluated in 25 mM Tris, 2.5 μM ZnCl2, 0.005% Brij-35, pH 9.0. All stocks of the compounds were evaluated for the presence of endotoxin using the EndoZyme II assay (Hyglos bioMérieux, Bernried am Starnberger See, Germany). Endotoxin levels in all concentrated stocks (2.5 mg/mL) were below the accepted limit of 0.5 EU/mL.
(§2) To determine the inhibition of gelatinolytic activity, we used a previously optimized gelatin degradation assay. Activated MMP-9, activated MMP-2, neutrophil elastase or supernatants of stimulated neutrophils, were incubated with different concentrations of inhibitors and incubated for 30 min at 37 °C. Next, dye-quenched gelatin (DQ™-gelatin, Invitrogen, Carlsbad, CA, USA) was added at a final concentration of 2.5 µg/mL and the increase in fluorescence over time was measured with the CLARIOstar microplate reader (BMG Labtech, Ortenberg, Germany). For other MMPs, the OmniMMP substrate peptide (Mca-PLGL-Dpa-AR-NH2, cat. no. BML-P126-0001, Enzo Life Sciences, Farmingdale, NY, USA) was used at a final concentration of 2.5 µg/mL. For ADAM17 the fluorogenic peptide Mca-PLAQAV-Dpa-RSSSR-NH2 (ES003, R & D systems, Minneapolis, MO, USA) and for neutrophil elastase the fluorogenic substrate MeOSuc-AAPV-AMC (cat. no. 324740, Merck Millipore, Darmstadt, Germany) were used. Proteolytic activity was determined by linear regression of the fluorescence curve and the percentage inhibition was calculated through comparison with the positive control (no inhibitors). When testing supernatants from human neutrophils, the assay was performed in the presence of 20 µM neutrophil elastase inhibitor (Elastase Inhibitor IV, Calbiochem, Darmstadt, Germany).

The target of a further assay is T2, MMP-2 (Homo sapiens, UniProt P08253).
T2 construct: purchased R & D systems; host or cells: CHO cells
T2 sequence (P08253 110-660): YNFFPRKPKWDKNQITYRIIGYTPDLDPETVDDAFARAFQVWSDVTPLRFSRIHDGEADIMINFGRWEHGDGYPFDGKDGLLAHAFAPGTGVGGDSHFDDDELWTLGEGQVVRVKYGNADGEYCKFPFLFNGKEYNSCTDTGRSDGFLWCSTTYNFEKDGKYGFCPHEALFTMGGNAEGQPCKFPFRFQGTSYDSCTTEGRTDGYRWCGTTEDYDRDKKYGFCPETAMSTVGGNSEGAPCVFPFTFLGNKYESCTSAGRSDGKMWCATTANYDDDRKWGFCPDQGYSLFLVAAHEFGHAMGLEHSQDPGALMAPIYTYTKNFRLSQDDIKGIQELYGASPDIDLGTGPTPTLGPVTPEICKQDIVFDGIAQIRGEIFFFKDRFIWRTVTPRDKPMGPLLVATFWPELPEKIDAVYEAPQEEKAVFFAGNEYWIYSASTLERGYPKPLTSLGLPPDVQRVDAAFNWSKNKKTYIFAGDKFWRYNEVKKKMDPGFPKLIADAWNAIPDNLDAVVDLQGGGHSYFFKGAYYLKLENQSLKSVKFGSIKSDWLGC
Kind of assay: MMP-2 OmniMMP peptide assay. The settings on record: OmniMMP substrate peptide. How it is done:
Compounds 5 and 7 were synthesized as previously reported. Full-length human proMMP-9 was produced by recombinant expression in Sf9 insect cells and purified by gelatin-Sepharose chromatography as previously described. Stable full-length proMMP-9 monomers and trimers were separated by glycerol gradient ultracentrifugation as previously described. ProMMP-9 mixture and the separated monomers and trimers were activated by incubation with the catalytic domain of MMP-3 (cat. No. 444217, Merck Millipore, Darmstadt, Germany) as previously described. Activation of proMMP-9 was confirmed by a band shift of ±10 kDa, corresponding to the removal of the auto-inhibitory propeptide domain and by detection of gelatinolytic activity with a previously described gelatin degradation assay. […] ADAM17/TACE (Sf 21 (baculovirus)-derived, R & D systems, Minneapolis, MO, USA) was diluted and evaluated in 25 mM Tris, 2.5 μM ZnCl2, 0.005% Brij-35, pH 9.0. All stocks of the compounds were evaluated for the presence of endotoxin using the EndoZyme II assay (Hyglos bioMérieux, Bernried am Starnberger See, Germany). […]
To determine the inhibition of gelatinolytic activity, we used a previously optimized gelatin degradation assay. […] Proteolytic activity was determined by linear regression of the fluorescence curve and the percentage inhibition was calculated through comparison with the positive control (no inhibitors). […]

For assay [2], the target named is T3, human neutrophil-derived MMP-9 trimers (Homo sapiens, UniProt P14780).
T3 construct: purchased Sigma-Aldrich 444232; host or cells: human neutrophils (natural protein)
T3 sequence (P14780 107-707 limits assumed): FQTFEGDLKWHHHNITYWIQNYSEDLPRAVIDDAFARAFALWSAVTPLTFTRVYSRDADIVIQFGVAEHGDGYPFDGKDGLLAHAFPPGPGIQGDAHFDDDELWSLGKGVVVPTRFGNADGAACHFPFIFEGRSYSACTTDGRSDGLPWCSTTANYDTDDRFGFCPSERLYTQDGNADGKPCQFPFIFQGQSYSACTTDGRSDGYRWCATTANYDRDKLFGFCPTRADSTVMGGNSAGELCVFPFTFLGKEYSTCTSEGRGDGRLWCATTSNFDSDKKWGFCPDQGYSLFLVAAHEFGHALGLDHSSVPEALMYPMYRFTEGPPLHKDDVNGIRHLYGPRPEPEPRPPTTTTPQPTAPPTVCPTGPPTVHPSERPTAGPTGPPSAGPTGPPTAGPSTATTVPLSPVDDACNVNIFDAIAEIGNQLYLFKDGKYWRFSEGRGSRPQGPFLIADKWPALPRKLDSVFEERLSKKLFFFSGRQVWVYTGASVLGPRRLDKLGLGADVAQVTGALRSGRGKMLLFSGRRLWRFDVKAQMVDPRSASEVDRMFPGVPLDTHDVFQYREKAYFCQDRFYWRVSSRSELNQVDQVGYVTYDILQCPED
Kind of assay: Gelatin degradation assay, neutrophil-derived MMP-9 trimers. The settings on record: for IC25 / IC50 / IC75: MMP-9 isolated from human neutrophils, tri, gelatin degradation. How it is done:
as §1, §2

The values below come from paper PMC7408547, “Bivalent Inhibitor with Selectivity for Trimeric MMP-9 Amplifies Neutrophil Chemotaxis and Enables Functional Studies on MMP-9 Proteoforms” (Cells, 2020).

Values joined by “and” are separate entries in the source; they are usually repeats but may differ in a detail not shown here. Equal values may be shown once.

T1 sequence (P14780 107-707 limits assumed): as above

On to `CC(C)[C@H](C(=O)O)N(CCNC(=O)c1ccccc1)S(=O)(=O)c1ccc(-c2ccccc2)cc1` [Compound 5], for which, in assay [1], the 25% effect concentration (IC25) turned out to be 359 nM, the IC50 was 1410 nM and the IC75 was determined as 5509 nM. Half-maximal inhibition at MMP-2 (IC50) was put at 1030 nM. Moreover, in assay [2], the IC25 was 479 nM, the IC50 was 4220 nM and the IC75 is 17212 nM.
`CC(C)[C@H](C(=O)O)N(CCNC(=O)c1cccc(C(=O)NCCN([C@@H](C(=O)O)C(C)C)S(=O)(=O)c2ccc(-c3ccccc3)cc2)c1)S(=O)(=O)c1ccc(-c2ccccc2)cc1` [Compound 7]: in assay [1], the IC25 was 28 nM, the concentration for half-maximal inhibition (IC50) was 182 nM and the IC75 is recorded as 627 nM. Also, on MMP-2, the IC50 is ~5 nM and 5 nM. For the same compound, in assay [2], the concentration for an effect of 25% (IC25) was determined as 0.008 nM, the half-inhibitory concentration (IC50) was determined as 0.066 nM and the 75% effect concentration (IC75) is 0.6 nM. For the same compound, the “fold difference between monomeric and trimeric MMP-9” value in assay [2] (MMP-9 purified from human neutrophils, gelatin substrate) amounted to 650 fold.
